Values of other authors as cited in patent US20130053277A1 (priority 2010, published 2013).

Target: influenza A virus M2 ion channel, S31N mutant (Influenza A virus, UniProt P0DOF5, S31N)
Settings: cited from earlier work

## NC12CC3CC(CC(C3)C1)C2 [amantadine, Amantadine]
  isochronic apparent inhibitory binding constant: 200 JLM
